According to patent US7470550B2, “Method of evaluating cell activity” (Toyo Advanced Technologies Co., Ltd., priority 2001, dated 2008):

Legend:
Assay type in all cases: cell-based
Mast cells = assay: SPR measurement of reaction of mast cells on an antigen
Description: (§1) The method of the invention will be explained in more detail by the following examples, which are not intended to limit the scope of the invention. In the following examples, SPR-CELLIA (Japan Laser Electronic Co.) was used as an SPR analyzer. The sensor chip for amine coupling was prepared as follows.
(§2) In 10 μM solution of 4,4-dithiodibutyric acid in ethanol was immersed a sensor chip and stirred for 30 minutes. Thereafter, the chip was washed with dry ethanol and dried. Water-soluble carbodiimide (25 mg) was dissolved in 1 ml of MilliQ water, and 15mg of N-hydroxysuccinimide in 9 ml of 1,4-dioxane, respectively. Both solutions were mixed immediately before the dried sensor chip was immersed therein and the mixture stirred for 10 minutes. Then, there was added 10 ml of MilliQ water, and the mixture was stirred for 5 minutes. The chip was washed with MilliQ water and preserved in MilliQ water.
Mast cells (2×10^5 cells/ml, 70 μl) were immobilized on a sensor chip in the same manner as in Example 1. IgE was added to a measuring portion, and incubated in a CO2 incubator at 37° C. overnight. The chip was set on an SPR analyzer, and a running buffer (PIPES buffer, pH 7.2) was perfused at a flow rate of 15 μl/min at a fixed temperature of 37° C. Then, 60 μl of 100 ng/ml DNP-HSA (dinitrophenyl-human serum albumin) or 10 μg/ml DNP-lysine was injected, while a running buffer was perfused continuously, and the change of signal was measured. The composition of PIPES (piperaine-N,N′-bis[2-ethane-sulfonic acid]; 1,4-piperzine-diethanesulfonic acid) buffer is as shown in Table 1.

Papilla cells = assay: SPR measurement of reaction of papilla cells (mesenchyme cells) with bFGF, with or without phosphorylation inhibitor; settings: for SPR signal from 10 minutes after the injection: 37° C., 1 μg/ml bFGF alone, or bFGF + 50 μM SU4984
Description: as §1, §2
Papilla cells were removed from a petri dish with 0.02% EDTA and suspended in a DMEM10 culture medium. The cells (2×10^5 cells/ml, 400 μl) were immobilized on a sensor chip in the same manner as in Example 1.
PBS was perfused at a flow rate of 15 μl/min at a fixed temperature of 37° C.; 1 μg/ml of bFGF alone was injected into a control portion, and 60 μl of μg/ml bFGF+50 μM phosphorylation inhibitor (SU4984) into a measuring portion; after a lapse of 42 seconds the circuit was closed and the change of signals was measured.

CTLL-2 cells = assay: SPR measurement of reaction of CTLL2 cells (suspended cells) with IL-2; settings: living CTLL-2 cells immobilized on sensor chip, 37° C., PBS perfusion 15 μl/min; IL-2 62.5 ng/ml, 60 μl
From the text: In the method of the invention, cells are immobilized on a analyzer in the same manner as in the usual SPR measurement for vial cells, to which a stimulus as mentioned above is given to determine the signal as a change of permittivity in a conventional procedure.
as §1, §2
The suspension (30 μl)of CTLL-2 cells (2×10^5 cells/ml) in PBS were directly placed onto both of sensor chip-measuring portion and control portion, and the chip was blocked with 50 μl of 1% BSA. The sensor chip was equipped in a flow-cell unit of the SPR analyzer, of which the temperature was set at 37° C. and was perfused with PBS at a flow rate of 15 μl/min.

[1] = 10 μg/ml DNP-lysine, PIPES buffer pH 7.2, 37° C.
[2] = 60 μl of 100 ng/ml DNP-HSA, PIPES buffer pH 7.2, 37° C.

Molecule: N[C@@H](CCCCNc1ccc([N+](=O)[O-])cc1[N+](=O)[O-])C(=O)O [DNP-lysine]
- primary SPR signal in mast cells (Mast cells; [1]): primary signal generated by the binding of DNP-lysine was observed
- secondary SPR signal in mast cells (Mast cells; [1]): no secondary signal observed

Molecule: O=CN1CCN(c2ccc(/C=C3\C(=O)Nc4ccccc43)cc2)CC1 [SU4984]
- SPR signal from 10 minutes after the injection (Papilla cells): became plateau
- signal transduction caused by the binding of bFGF (Papilla cells; bFGF + 50 μM SU4984): suppressed

Molecule: aFGF: agent which does not bind to CTLL-2 cells
- SPR signal (difference between measuring portion and control portion) (CTLL-2 cells): no signal was observed

Molecule: bFGF: growth factor injected onto papilla cells; does not bind to CTLL-2 cells
- SPR signal (difference between measuring portion and control portion) (CTLL-2 cells): no signal was observed
- SPR signal from 10 minutes after the injection (Papilla cells): ascended continuously

Molecule: dinitrophenyl-human serum albumin [DNP-HSA]
- primary SPR signal in mast cells (FIG. 3) (Mast cells; 100 ng/ml DNP-HSA, IgE sensitized versus unsensitized cells): no primary signal was recorded
- SPR signal in IgE sensitized mast cells (Mast cells; [2]): a strong signal was observed
- SPR signal in IgE unsensitized mast cells (Mast cells; [2]): no characteristic change

B1: pleiotrophin: agent which does not bind to CTLL-2 cells (protein, UniProt P21246 33-168, looked up)
Pleiotrophin: GKKEKPEKKVKKSDCGEWQWSVCVPTSGDCGLGTREGTRTGAECKQTMKTQRCKIPCNWKKQFGAECKYQFQAWGECDLNTALKTRTGSLKRALHNAECQKTVTISKPCGKLTKPKPQAESKKKKKEGKKQEKMLD
- SPR signal (difference between measuring portion and control portion) (CTLL-2 cells): no signal was observed
